Data on one compound can be found in US20260272936A1, “TREATMENT OF CANCER WITH A PARG INHIBITOR” (858 Therapeutics, Inc., priority 2023, published 2026).

One assay concerns the target T1, human A1 receptor (Homo sapiens, UniProt P30542).
T1 construct: Eurofins (contract study)
Kind of assay: Eurofins selectivity panel, radioligand competition binding at 10 μM. As to the method:
(§1) The inhibitory potential of Compound 1 was tested against 38 diverse non-kinase enzymes and 55 receptors, ion channels and neurotransmitter transporters in radioligand competition binding assays using mostly human recombinant proteins. […] Compound 1 was also tested against an additional panel of 468 protein kinases. Studies were performed at Eurofins (Luxembourg City, Luxembourg) using their published assay formats.
(In a radioligand displacement assay an active substance lowers the binding of a labelled ligand.)

In the next assay the target is T2, 5-HT2A receptor (Homo sapiens, UniProt P28223).
T2 construct: Eurofins (contract study)
T2 sequence (P28223 whole entry): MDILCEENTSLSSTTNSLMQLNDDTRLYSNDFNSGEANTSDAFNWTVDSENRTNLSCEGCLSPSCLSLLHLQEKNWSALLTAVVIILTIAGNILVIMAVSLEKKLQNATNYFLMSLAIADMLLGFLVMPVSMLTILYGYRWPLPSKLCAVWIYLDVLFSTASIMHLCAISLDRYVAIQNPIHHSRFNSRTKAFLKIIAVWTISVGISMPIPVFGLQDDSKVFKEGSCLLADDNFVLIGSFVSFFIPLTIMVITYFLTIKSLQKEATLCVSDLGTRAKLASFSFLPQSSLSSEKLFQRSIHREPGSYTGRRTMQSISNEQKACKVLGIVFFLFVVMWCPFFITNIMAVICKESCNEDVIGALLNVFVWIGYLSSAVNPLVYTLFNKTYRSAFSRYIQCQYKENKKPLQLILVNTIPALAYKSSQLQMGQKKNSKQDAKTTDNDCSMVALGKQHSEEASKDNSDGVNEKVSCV
The assay is described as above. As to the method:
as §1

For assay [1], the target named is T3, human recombinant PARG (AA 389-976) (Homo sapiens, UniProt Q86W56).
T3 construct: His-tagged human recombinant PARG (AA 389-976) was coupled to a CM5 biosensor chip; made in house; host or cells: E. coli BL21 (DE3), pET28a
T3 sequence (Q86W56 389-976): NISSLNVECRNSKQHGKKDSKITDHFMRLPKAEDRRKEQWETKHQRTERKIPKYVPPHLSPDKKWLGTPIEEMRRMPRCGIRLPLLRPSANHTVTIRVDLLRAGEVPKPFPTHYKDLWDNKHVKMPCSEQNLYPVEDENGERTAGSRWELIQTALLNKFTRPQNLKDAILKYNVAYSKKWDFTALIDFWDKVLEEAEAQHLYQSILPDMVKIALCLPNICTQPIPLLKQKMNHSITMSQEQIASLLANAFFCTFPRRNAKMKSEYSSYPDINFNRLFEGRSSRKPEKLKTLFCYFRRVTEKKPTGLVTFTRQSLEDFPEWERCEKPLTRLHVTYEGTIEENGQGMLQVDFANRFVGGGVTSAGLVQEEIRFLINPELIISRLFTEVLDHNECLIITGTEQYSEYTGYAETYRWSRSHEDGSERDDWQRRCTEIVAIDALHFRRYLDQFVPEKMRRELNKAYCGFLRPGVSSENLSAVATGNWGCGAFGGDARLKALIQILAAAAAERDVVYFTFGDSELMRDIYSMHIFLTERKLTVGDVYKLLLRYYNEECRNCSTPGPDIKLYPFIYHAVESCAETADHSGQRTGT
The experiment in a line: Surface plasmon resonance (SPR) direct binding. A general note: Surface plasmon resonance follows binding to a sensor surface in real time, without labels.

The subject of a further assay is OVCAR-3 cells. Kind of assay: MMS-induced nuclear PAR accumulation, immunofluorescence imaging. Type of assay: cell-based. Particulars: Homo sapiens; OVCAR-3, 50 μg/mL MMS, n=3; read-out: Geometric Mean EC50, PAR accumulation. As to the method:
(§2) The HeLa (Cat #CCL-2) and OVCAR-3 (Cat #HTB-161) human cancer cell lines were obtained from ATCC (Manassas, Virginia, USA) and the RMUG-S(Cat #IFO50320) and Kuramochi (Cat #JCRB0098) cell lines were obtained from the National Institutes of Biomedical Innovation, Health and Nutrition's Japanese Collection of Research Bioresources (Ibaraki City, Osaka, Japan).
(§3) All cell lines were grown in an incubator at 37° C. in 5% CO2. HeLa cells were cultured in Dulbecco's Modified Medium (DMEM)+glutaMAX™ (Thermo Fisher Scientific, Waltham, MA, USA Cat #10566-016) containing 1% penicillin/streptomycin (pen/strep) (Thermo Fisher Scientific Cat #15070-063), and 10% fetal bovine serum (FBS) (Thermo Fisher Scientific Cat #A31605-02). Kuramochi cells were cultured in RPMI medium+glutaMAX™ (Thermo Fisher Scientific Cat #72400-047), 10% FBS, and 1% pen/strep. RMUG-S cells were cultured in Ham's F12 medium+glutaMAX™ (Thermo Fisher Scientific Cat #31765-035) containing 10% FBS, and 1% pen/strep. OVCAR-3 cells were cultured in RPMI medium+glutaMAX™ containing 20% FBS, 1% pen/strep, and 0.01 mg/mL bovine insulin (MilliporeSigma, Burlington, MA, USA Cat #10516-5ML).
(§4) Compound 1 EC50 values for accumulation of PAR chains were determined using an immunofluorescence high-content imaging assay of PAR staining. Cells were harvested with trypsin (Thermo Fisher Scientific, Cat #25200-056) and plated in black-walled, clear bottom 96-well Corning Costar 3603 plates (VWR, Radnor, PA, USA Cat #29444-008) at 15,000 cells/well in 100 μL normal growth media. The cells were incubated overnight at 37° C., 5% CO2. The following day, a 1000× Compound 1 concentration curve was prepared by serial dilution of Compound 1 in 100% DMSO for twelve concentrations with the highest starting final concentration of 10 μM. The 1000× test compound curve was diluted 1:200 into growth media to prepare a 5× concentration curve in 0.5% DMSO/media before addition of 25 μL of compound or 0.5% DMSO/media alone to each well of the plate. The plate was mixed gently on a plate shaker and then preincubated at 37° C., 5% CO2 for 1 hour. A 2.25× stock of MMS (Sigma Cat #129925-5G) plus Compound 1 in media was prepared by diluting a 100 mg/mL stock of MMS prepared in 100% DMSO into growth media containing 1× Compound 1 compound. […] Nuclear PAR accumulation was evaluated by imaging the plates on an ImageXpress Pico automated cell imaging system (Molecular Devices, San Jose, CA, USA).
(§5) Four fields for each well were acquired at 20× magnification resulting in at least 1,000 cells analyzed per well. Percent PAR positive cells were calculated using CellReporterXpress software (Molecular Devices, San Jose, CA, USA) using nuclei detection by DAPI image segmentation then setting a fluorescence intensity threshold for PAR. […]

A further assay deals with HeLa cells. Described as above. The assay is classed as cell-based. The following applies: Homo sapiens, 50 μg/mL MMS, n=26, read-out: Geometric Mean EC50, PAR accumulation. As to the method:
as §2, §3, §4, §5

In a further assay the test system is Kuramochi cells. Described as above. Type of assay: cell-based. Particulars: Homo sapiens, 50 μg/mL MMS, n=3, read-out: Geometric Mean EC50, PAR accumulation. As to the method:
as §2, §3, §4, §5

A further assay deals with RMUG-S cells. The assay is described as above. The assay is classed as cell-based. The following applies: Homo sapiens, 50 μg/mL MMS, n=3, read-out: Geometric Mean EC50, PAR accumulation. As to the method:
as §2, §3, §4, §5

T1 sequence (P30542 whole entry): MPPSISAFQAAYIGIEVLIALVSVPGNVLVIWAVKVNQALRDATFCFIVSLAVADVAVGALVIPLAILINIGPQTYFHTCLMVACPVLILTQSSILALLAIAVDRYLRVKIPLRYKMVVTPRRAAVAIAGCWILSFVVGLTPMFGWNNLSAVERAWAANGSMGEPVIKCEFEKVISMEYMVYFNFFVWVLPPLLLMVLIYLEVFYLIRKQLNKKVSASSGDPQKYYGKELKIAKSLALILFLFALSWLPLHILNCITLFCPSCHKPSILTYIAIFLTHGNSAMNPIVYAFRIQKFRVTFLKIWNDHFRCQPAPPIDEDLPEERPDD

As for `[2H]C([2H])(c1cnn(C)c1)N1C(=O)c2cc(S(=O)(=O)NC3(C)CC3)ccc2N2C1=NC[C@H]2C` [Compound 1, (R)-1-methyl-4-((1-methyl-1H-pyrazol-4-yl)methyl-d2)-N-(1-methylcyclopropyl)-5-oxo-1,2,4,5-tetrahydroimidazo[1,2-a]quinazoline-7-sulfonamide], the inhibition at 10 µM at human A1 receptor came to 67%; on 5-HT2A receptor it was 64%. Also, the Kd in assay [1] (SPR kinetic KD, 1:1 binding, 25° C., mean n=2) is 1.1 nM. Moreover, the “Rmax (Relative Units)” value in assay [1] (relative amount of PARG bound by Compound 1) came to 15.9 Relative Units. Moreover, the “Theoretical Rmax” value in assay [1] (total amount of PARG immobilized on the biosensor chip) is listed as 19.8. Moreover, the EC50 in the assay with OVCAR-3 cells stood at 20 nM; in the assay on HeLa cells, 14 nM; in the assay with Kuramochi cells, 9 nM; in the assay on RMUG-S cells, 38 nM.

By inhibition is commonly meant the relative decrease from the control value, in per cent. Low values mean a weak effect, high ones a strong effect. By Kd is commonly meant a measure of binding affinity in units of concentration. As a reminder, the EC50 is the concentration that produces a half-maximal response.
